Results reported in ChEMBL document CHEMBL3991601, “The target landscape of clinical kinase drugs” (Science, 2017).
The source made the active and inactive calls. Rule as the data show it, for most assays here: actives have a measured Kd and inactives only a lower limit.

Tests used:
[1] = target: T1, Discoidin domain-containing receptor 2 (Homo sapiens, UniProt Q16832)
T1 sequence (Q16832 whole entry): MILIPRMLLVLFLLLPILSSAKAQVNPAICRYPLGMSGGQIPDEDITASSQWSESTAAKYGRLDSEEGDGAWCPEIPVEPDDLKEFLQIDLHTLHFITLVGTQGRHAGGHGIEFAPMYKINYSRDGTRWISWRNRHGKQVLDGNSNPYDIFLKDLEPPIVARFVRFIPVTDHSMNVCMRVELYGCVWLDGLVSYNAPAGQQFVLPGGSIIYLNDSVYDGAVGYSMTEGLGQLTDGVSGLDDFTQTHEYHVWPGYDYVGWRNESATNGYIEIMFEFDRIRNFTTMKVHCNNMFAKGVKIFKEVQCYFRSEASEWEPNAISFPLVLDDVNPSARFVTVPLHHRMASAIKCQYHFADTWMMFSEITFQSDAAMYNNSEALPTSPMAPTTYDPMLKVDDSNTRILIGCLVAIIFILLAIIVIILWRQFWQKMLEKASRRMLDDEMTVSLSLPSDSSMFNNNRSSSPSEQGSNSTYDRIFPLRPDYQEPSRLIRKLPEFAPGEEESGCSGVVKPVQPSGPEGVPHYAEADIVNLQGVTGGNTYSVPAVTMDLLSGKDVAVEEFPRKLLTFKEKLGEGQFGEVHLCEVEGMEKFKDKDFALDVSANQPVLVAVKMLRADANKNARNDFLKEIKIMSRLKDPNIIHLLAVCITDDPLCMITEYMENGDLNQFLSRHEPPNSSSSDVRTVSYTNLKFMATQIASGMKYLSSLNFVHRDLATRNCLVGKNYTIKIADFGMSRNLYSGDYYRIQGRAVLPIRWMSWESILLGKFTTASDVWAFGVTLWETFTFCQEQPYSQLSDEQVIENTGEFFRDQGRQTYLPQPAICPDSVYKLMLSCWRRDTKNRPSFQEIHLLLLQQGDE

Ephrin type-A receptor 7 = Ephrin type-A receptor 7 (Homo sapiens, UniProt Q15375)
Aurora kinase B = Aurora kinase B (Homo sapiens, UniProt Q96GD4)
[2] = target: Platelet-derived growth factor receptor beta (Homo sapiens, UniProt P09619)
[3] = target: Mitogen-activated protein kinase 7 (Homo sapiens, UniProt Q13164)
[4] = target: BMP-2-inducible protein kinase (Homo sapiens, UniProt Q9NSY1)
[5] = target: T2, Structural maintenance of chromosomes protein 1A (Homo sapiens, UniProt Q14683)
T2 sequence (Q14683 whole entry): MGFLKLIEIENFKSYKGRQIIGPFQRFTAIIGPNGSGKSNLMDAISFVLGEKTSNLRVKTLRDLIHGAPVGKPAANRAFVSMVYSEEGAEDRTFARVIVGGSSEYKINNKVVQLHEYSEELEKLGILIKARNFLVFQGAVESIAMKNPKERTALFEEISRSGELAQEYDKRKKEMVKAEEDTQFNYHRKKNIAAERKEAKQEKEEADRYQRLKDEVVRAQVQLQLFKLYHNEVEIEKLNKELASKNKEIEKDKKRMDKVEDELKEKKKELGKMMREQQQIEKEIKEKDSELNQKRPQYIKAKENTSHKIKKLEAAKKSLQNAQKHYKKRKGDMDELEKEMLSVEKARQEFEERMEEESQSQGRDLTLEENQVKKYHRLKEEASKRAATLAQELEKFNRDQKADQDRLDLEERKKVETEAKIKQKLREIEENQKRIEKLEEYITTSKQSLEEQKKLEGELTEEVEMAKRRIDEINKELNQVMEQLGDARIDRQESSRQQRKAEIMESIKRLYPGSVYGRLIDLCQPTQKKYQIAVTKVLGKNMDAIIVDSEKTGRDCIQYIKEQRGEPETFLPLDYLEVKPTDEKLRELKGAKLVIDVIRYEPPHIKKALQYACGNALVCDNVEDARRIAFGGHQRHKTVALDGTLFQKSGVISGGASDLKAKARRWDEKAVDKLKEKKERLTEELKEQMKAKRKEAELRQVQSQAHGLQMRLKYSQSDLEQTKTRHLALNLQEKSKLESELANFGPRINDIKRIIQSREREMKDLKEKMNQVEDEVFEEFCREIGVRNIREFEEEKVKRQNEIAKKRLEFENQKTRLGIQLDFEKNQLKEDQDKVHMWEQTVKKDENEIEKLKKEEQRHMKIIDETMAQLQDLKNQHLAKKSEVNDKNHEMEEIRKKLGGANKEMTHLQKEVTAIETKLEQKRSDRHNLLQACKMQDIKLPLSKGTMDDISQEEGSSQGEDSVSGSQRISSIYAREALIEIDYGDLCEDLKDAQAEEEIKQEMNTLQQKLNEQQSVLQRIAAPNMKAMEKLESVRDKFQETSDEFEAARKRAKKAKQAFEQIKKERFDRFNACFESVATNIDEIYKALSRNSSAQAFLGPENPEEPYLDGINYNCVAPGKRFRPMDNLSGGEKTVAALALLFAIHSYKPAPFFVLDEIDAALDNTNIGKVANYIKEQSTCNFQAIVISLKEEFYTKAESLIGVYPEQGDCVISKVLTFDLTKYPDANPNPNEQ

[6] = target: T3, Ribosyldihydronicotinamide dehydrogenase [quinone] (Homo sapiens, UniProt P16083)
T3 sequence (P16083 whole entry): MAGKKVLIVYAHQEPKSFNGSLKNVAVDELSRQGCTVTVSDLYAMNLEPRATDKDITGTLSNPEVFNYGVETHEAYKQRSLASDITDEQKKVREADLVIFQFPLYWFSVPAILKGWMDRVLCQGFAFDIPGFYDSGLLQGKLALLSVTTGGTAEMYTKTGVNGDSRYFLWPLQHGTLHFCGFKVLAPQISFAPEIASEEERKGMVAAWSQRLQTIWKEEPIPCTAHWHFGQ

[7] = target: T4, EKC/KEOPS complex subunit TP53RK (Homo sapiens, UniProt Q96S44)
T4 sequence (Q96S44 whole entry): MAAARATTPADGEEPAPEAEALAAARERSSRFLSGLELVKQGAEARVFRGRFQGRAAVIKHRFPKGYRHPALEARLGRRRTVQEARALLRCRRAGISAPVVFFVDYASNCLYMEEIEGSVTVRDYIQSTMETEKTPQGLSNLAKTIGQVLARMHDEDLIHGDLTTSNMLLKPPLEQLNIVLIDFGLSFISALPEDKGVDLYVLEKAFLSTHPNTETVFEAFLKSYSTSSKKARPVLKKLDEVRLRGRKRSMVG

[8] = target: Eukaryotic translation initiation factor 2-alpha kinase 1 (Homo sapiens, UniProt Q9BQI3)
[9] = target: cAMP-dependent protein kinase type II-alpha regulatory subunit (Homo sapiens, UniProt P13861)
Also: in the data inactive means no Kd found up to 30 µM.

Chain of Ephrin type-A receptor 7 (Q15375 whole entry): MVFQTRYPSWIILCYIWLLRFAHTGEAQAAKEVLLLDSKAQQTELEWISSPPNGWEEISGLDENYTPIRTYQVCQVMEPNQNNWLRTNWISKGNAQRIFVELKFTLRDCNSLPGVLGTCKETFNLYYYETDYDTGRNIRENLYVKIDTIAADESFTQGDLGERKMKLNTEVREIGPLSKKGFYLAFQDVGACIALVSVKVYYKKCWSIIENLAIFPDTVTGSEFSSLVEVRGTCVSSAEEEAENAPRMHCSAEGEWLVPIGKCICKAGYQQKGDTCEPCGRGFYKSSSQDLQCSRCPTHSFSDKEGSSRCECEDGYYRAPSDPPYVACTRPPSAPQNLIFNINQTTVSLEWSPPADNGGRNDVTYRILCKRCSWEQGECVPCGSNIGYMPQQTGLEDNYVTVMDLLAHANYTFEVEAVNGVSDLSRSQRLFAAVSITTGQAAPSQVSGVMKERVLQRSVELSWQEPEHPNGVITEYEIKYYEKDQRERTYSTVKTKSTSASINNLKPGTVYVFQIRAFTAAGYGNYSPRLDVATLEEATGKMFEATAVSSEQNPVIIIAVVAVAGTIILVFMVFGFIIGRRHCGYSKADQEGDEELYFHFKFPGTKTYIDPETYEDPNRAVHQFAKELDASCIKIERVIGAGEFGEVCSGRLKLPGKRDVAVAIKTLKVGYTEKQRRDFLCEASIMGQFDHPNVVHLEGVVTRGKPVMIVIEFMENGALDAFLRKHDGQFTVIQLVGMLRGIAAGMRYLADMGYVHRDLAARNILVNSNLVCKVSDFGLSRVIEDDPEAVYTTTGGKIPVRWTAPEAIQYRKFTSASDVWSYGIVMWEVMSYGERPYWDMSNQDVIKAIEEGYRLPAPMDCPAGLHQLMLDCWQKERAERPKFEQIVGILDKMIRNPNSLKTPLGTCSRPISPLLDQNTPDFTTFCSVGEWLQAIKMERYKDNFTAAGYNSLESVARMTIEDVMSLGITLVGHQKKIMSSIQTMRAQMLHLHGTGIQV
Chain of Platelet-derived growth factor receptor beta (P09619 whole entry): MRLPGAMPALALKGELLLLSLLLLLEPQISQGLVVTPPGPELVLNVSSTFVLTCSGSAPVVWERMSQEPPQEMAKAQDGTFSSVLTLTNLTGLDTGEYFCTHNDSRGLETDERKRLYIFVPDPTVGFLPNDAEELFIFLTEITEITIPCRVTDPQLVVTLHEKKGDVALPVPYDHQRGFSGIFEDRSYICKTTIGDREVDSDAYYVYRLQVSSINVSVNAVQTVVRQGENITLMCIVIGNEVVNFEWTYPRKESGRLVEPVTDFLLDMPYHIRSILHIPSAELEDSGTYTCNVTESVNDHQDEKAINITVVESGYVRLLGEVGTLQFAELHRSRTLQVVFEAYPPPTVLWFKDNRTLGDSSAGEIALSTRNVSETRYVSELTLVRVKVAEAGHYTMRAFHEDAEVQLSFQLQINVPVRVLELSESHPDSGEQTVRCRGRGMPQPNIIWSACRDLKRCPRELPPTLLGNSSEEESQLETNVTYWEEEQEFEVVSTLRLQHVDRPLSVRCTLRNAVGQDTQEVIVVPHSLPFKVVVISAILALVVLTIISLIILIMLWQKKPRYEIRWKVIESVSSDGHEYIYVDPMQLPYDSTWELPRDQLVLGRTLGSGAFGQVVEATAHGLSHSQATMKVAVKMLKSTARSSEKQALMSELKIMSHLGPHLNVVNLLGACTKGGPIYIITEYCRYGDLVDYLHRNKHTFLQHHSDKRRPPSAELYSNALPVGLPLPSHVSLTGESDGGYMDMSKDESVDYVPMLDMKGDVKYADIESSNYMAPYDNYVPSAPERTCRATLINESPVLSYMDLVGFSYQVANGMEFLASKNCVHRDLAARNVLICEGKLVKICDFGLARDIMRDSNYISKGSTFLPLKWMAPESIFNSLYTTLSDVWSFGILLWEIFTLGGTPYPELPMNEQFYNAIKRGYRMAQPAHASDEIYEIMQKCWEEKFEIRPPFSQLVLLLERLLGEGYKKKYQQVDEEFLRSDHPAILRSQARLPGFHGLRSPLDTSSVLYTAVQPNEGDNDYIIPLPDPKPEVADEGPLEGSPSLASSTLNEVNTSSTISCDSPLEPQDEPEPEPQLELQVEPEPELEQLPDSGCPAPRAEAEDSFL
Chain of Aurora kinase B (Q96GD4 whole entry): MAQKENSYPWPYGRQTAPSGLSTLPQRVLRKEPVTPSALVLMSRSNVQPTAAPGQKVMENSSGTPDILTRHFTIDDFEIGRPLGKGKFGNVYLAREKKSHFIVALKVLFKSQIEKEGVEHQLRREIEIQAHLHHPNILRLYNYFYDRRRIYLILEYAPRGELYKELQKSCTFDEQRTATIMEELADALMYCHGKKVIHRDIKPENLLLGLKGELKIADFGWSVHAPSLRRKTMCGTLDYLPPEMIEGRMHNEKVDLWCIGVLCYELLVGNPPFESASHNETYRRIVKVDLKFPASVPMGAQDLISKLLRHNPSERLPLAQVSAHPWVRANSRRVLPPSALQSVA
Chain of Mitogen-activated protein kinase 7 (Q13164 whole entry): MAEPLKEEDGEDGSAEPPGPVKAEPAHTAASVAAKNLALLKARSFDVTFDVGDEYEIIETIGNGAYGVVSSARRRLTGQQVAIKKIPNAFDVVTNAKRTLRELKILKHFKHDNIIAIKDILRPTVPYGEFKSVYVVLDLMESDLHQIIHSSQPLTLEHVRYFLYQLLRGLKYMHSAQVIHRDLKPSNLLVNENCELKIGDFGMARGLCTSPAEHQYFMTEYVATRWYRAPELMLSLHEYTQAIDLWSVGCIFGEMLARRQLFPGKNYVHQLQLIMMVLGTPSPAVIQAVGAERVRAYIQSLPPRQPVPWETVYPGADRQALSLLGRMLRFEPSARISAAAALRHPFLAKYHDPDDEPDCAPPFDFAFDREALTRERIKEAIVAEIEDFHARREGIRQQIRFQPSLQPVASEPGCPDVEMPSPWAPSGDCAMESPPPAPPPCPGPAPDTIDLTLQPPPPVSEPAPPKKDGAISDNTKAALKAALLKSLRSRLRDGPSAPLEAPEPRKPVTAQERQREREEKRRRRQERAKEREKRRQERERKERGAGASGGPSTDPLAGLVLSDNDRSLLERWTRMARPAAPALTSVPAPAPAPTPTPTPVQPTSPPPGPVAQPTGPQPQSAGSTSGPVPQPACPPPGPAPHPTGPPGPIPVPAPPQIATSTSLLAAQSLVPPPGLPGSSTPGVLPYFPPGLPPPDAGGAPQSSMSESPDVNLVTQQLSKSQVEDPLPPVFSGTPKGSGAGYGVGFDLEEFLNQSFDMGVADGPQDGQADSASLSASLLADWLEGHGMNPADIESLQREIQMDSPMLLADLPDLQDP
Chain of Eukaryotic translation initiation factor 2-alpha kinase 1 (Q9BQI3 whole entry): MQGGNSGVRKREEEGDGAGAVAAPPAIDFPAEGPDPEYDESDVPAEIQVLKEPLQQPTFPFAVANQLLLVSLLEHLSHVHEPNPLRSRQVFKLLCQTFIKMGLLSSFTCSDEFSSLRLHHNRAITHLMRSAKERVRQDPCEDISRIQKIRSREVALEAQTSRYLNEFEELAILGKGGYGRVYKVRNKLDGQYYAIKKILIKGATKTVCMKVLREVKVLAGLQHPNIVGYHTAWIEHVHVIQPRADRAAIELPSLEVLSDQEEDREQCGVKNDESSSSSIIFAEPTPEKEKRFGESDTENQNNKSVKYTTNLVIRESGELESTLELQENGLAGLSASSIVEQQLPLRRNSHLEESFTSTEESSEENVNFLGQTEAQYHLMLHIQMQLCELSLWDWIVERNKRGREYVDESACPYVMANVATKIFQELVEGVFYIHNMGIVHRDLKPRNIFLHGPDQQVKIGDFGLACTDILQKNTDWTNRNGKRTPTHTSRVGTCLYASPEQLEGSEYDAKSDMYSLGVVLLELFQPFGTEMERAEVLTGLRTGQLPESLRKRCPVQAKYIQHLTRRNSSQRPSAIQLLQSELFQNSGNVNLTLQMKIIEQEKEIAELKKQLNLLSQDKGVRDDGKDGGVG
Chain of cAMP-dependent protein kinase type II-alpha regulatory subunit (P13861 whole entry): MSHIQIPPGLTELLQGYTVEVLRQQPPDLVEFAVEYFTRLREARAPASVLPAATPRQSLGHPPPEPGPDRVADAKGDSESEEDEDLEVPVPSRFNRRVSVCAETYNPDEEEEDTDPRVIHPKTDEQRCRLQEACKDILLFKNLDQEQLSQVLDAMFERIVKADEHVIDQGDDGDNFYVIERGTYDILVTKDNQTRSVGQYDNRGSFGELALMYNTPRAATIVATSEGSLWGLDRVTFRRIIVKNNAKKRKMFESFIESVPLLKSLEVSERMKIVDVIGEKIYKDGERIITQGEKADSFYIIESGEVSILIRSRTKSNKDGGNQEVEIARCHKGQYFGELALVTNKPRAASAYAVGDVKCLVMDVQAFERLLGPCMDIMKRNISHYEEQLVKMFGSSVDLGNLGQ

SMILES | Kd [1] | Kd (Ephrin type-A receptor 7) | Kd (Aurora kinase B) | Kd [2] | Kd [3] | Kd [4] | Kd [5] | Kd [6] | Kd [7] | Kd [8] | Kd [9]
C[C@@H](Oc1cc(C(=O)Nc2ccc(C(=O)N3CCN(C)CC3)cc2)nnc1N)c1c(Cl)ccc(F)c1Cl | > 30 µM (inactive) | > 30 µM (inactive) | > 30 µM (inactive) | > 30 µM (inactive) | > 30 µM (inactive) | > 30 µM (inactive) | > 30 µM (inactive) | > 30 µM (inactive) | > 30 µM (inactive) | > 30 µM (inactive) | 
CC(=O)c1cnc2ccc(-c3cc(Cl)c(O)c(Cl)c3)nc2c1N[C@H]1CC[C@H](CN(C)C)CC1 | 2.28 µM (active) | 0.016 µM | 0.126 µM (active) | 0.103 µM (active) | > 30 µM (inactive) | 0.245 µM (active) | > 30 µM (inactive) | > 30 µM (inactive) | 0.311 µM (active) | > 30 µM (inactive) | > 30 µM (inactive)
C=CC(=O)N1CCC[C@H](n2c(=O)n(-c3ccc(Oc4ccccc4)cc3)c3c(N)ncnc32)C1 | > 30 µM (inactive) | > 30 µM (inactive) | > 30 µM (inactive) | > 30 µM (inactive) | > 30 µM (inactive) | > 30 µM (inactive) | > 30 µM (inactive) | > 30 µM (inactive) | > 30 µM (inactive) | > 30 µM (inactive) | > 30 µM (inactive)
COCc1c(-c2ccc(NC(=O)Nc3cc(C(F)(F)F)ccc3F)c(F)c2)c2c(N)ncnn2c1CN1CCOCC1 | 3.25 µM (active) | > 30 µM (inactive) | > 30 µM (inactive) | > 30 µM (inactive) | > 30 µM (inactive) | > 30 µM (inactive) | > 30 µM (inactive) | > 30 µM (inactive) | > 30 µM (inactive) | > 30 µM (inactive) | > 30 µM (inactive)
COc1cc([C@@H]2c3cc4c(cc3[C@H](O)[C@H]3COC(=O)[C@@H]23)OCO4)cc(OC)c1OC [AXL-1717] | > 30 µM (inactive) | > 30 µM (inactive) | > 30 µM (inactive) | > 30 µM (inactive) | > 30 µM (inactive) | > 30 µM (inactive) | > 30 µM (inactive) | > 30 µM (inactive) | > 30 µM (inactive) | > 30 µM (inactive) | > 30 µM (inactive)
NC(=O)Nc1cc(-c2cccc(F)c2)sc1C(=O)N[C@H]1CCCNC1 [AZD-7762] | > 30 µM (inactive) | > 30 µM (inactive) | 0.715 µM (active) | 0.552 µM (active) | > 30 µM (inactive) | 0.181 µM (active) |  | > 30 µM (inactive) | > 30 µM (inactive) | > 30 µM (inactive) | > 30 µM (inactive)
CCCCCCCCCCCCCCCCCCOP(=O)([O-])OC1CC[N+](C)(C)CC1 [PERIFOSINE] | > 30 µM (inactive) | > 30 µM (inactive) | > 30 µM (inactive) | > 30 µM (inactive) | > 30 µM (inactive) | > 30 µM (inactive) | > 30 µM (inactive) | > 30 µM (inactive) | > 30 µM (inactive) | > 30 µM (inactive) | 

Second part, the molecule after the results:

Kd [1] | Kd (Ephrin type-A receptor 7) | Kd (Aurora kinase B) | Kd [2] | Kd [3] | Kd [4] | Kd [5] | Kd [6] | Kd [7] | Kd [8] | Kd [9] | SMILES
> 30 µM (inactive) | > 30 µM (inactive) | > 30 µM (inactive) | > 30 µM (inactive) | > 30 µM (inactive) | > 30 µM (inactive) | > 30 µM (inactive) | > 30 µM (inactive) | > 30 µM (inactive) | > 30 µM (inactive) | > 30 µM (inactive) | Nc1ncnc2c1c(-c1cccc(OCc3ccccc3)c1)cn2[C@H]1C[C@@H](CN2CCC2)C1 [AEW-541]
> 30 µM (inactive) | > 30 µM (inactive) | > 30 µM (inactive) | > 30 µM (inactive) | > 30 µM (inactive) | > 30 µM (inactive) | > 30 µM (inactive) | > 30 µM (inactive) | > 30 µM (inactive) | > 30 µM (inactive) | > 30 µM (inactive) | Cc1nc(NC(=O)N2CCC[C@H]2C(N)=O)sc1-c1ccnc(C(C)(C)C(F)(F)F)c1 [ALPELISIB]
0.298 µM (active) | > 30 µM (inactive) | 0.02 µM (active) | > 30 µM (inactive) | > 30 µM (inactive) | > 30 µM (inactive) | > 30 µM (inactive) | 3.35 µM (active) | > 30 µM (inactive) | > 30 µM (inactive) | > 30 µM (inactive) | Cc1csc(-c2nnc(Nc3ccc(Oc4ncccc4-c4ccnc(N)n4)cc3)c3ccccc23)c1 [AMG-900]
> 30 µM (inactive) | > 30 µM (inactive) | > 30 µM (inactive) | > 30 µM (inactive) | > 30 µM (inactive) | > 30 µM (inactive) | > 30 µM (inactive) | > 30 µM (inactive) | > 30 µM (inactive) | > 30 µM (inactive) | > 30 µM (inactive) | C=CC(=O)Nc1cc2c(Nc3ccc(F)c(Cl)c3)ncnc2cc1C#CC(C)(C)N1CCN(C)CC1 [AV-412 FREE BASE]
> 30 µM (inactive) | > 30 µM (inactive) | > 30 µM (inactive) | > 30 µM (inactive) | > 30 µM (inactive) | 2.68 µM |  | 2.36 µM (active) | > 30 µM (inactive) | > 30 µM (inactive) | > 30 µM (inactive) | Cn1cc(-c2cnn3c(N)c(Br)c([C@@H]4CCCNC4)nc23)cn1 [SCH-900776]
> 30 µM (inactive) | > 30 µM (inactive) | > 30 µM (inactive) | > 30 µM (inactive) | > 30 µM (inactive) | 0.179 µM (active) | > 30 µM (inactive) | > 30 µM (inactive) | > 30 µM (inactive) | > 30 µM (inactive) |  | C[C@@H](N)c1ccc(C(=O)Nc2ccnc3[nH]ccc23)cc1 [Y-39983]
